By melting point is commonly meant the temperature of the solid-liquid transition. Take `Cc1noc(C)c1-c1ccnc2[nH]c(-c3cn(C)c4ccc(C(=O)O)cc34)cc12`: the melting point was above 305 °C.

Compound `COC(=O)c1ccc2ccc(C#N)cc2c1` showed a melting point of 136 °C.

Compound `COc1ccccc1NC(=O)Nc1nc(NC(CC(=O)O)c2ccccc2)nc(Oc2ccc3ccccc3c2)n1` (stereo not given) gave a melting point of 149 °C.

`O=[N+]([O-])c1ccc(Cl)cc1NC1Cc2ccccc2C1` showed a melting point of 108 °C.

On to `COc1cccc(OC)c1C(=O)Nc1cc(C(C)(C)C)n[nH]1`, for which the melting point lay within 176 to 178 °C.

Compound `CC1C(=S)Nc2c1cc(F)c(F)c2F` (stereo not given) showed a melting point of 177 to 178 °C.

As for `O=C1CSCc2cc(-c3ccccc3)ccc21`, the melting point was in the range of 87 to 89 °C.

For `CC(C)(C)OC(=O)N1CCC(c2ccc(COc3ccc(-c4nc[nH]n4)cc3)nc2)CC1`, the melting point is 147 to 150 °C.

In turn, `CN(CCCNC(=O)NCCSCc1csc(NC(=N)N)n1)CCC(c1ccccc1)c1ccccn1` (stereo not given) displayed a melting point of 95 to 98 °C.

Regarding `Cc1nn(-c2c(Cl)cc(C(F)(F)F)cc2Cl)c(N)c1C=O`, the melting point was 169 to 172 °C.

In turn, `CCCSc1nc(Br)c(Br)n1Cc1cc2c(cc1Cl)OCO2` registered a melting point of 116 °C.

In turn, `CC1(C)C=C(c2ccccn2)c2cc(F)c(F)cc2OC1` displayed a melting point of 86 °C.

Compound `O=C(Cc1ccc(Cc2ccc(F)cc2)o1)C(=O)c1ccc[nH]1` returned a melting point of 96 to 98 °C.

Compound `CC(=Cc1ccc(C(=O)O)cc1)c1ccc2c(c1)N(C)CCC2(C)C` had a melting point of 194 to 196 °C.

`CCOC(=O)C1CCN(c2cc(-n3c(=O)cc(C(F)(F)F)[nH]c3=O)c(F)cc2C#N)CC1` displayed a melting point of 124 °C.

With `Cn1c(=O)c2conc2n(-c2ccccc2)c1=O`, the melting point lay in the range of 219 to 221 °C.

As to `CCN(CC)CCOC(=O)c1ccc(NC(=O)c2ccc(-c3ccccc3)cc2)cc1`, the melting point is 146 to 149 °C.

In turn, `CC1=NN=C(C=Cc2ccc(C(F)(F)F)cc2)c2cc3c(cc2C1)OCO3` had a melting point of 188 to 191 °C.

`Cc1nc(-c2ccc(C(F)(F)F)cc2)sc1COc1ccc(CC(=O)O)cc1Cl` displayed a melting point of 126 to 127 °C.

With `CCOC(=O)C(=Cc1ccc(F)cc1)C(C)=O`, the melting point is 80 to 82 °C.

As to `COC(=O)NNC(=O)Nc1cc(Cl)cc(Cl)c1`, the melting point turned out to be 246 °C.

`C1=Nc2c(cnc3ccccc23)OC12CCCCC2`: the melting point is 164 to 165 °C.

The compound `O=C(O)C(=O)Nc1cccc(NC(=O)C(=O)O)c1Cl` gave a melting point above 320 °C.

Compound `COc1cccc(C=CC(=O)C2=C(O)C(=C(C)Nc3ccccc3N)C(=O)OC2=O)c1OC` came in with a melting point of 212 to 215 °C.

For `O=C(C1CCc2nc[nH]c2C1)N1CCc2ccccc2C1` (stereo not given), the melting point is 128 to 130 °C.

Consider `CN1CCN(C2=Nc3cc(Cl)cc4c3N(CC4)c3ccccc32)CC1`, for which the melting point lay within 199 to 200 °C.

`COC(=O)c1ccc(OC)nc1SCc1ccccc1` came in with a melting point of 67 to 71 °C.

Turning to `CCCN(CCC)Cc1nc(-c2ncn3c2CN(C)C(=O)c2ccccc2-3)no1`, the melting point is 130 to 132 °C.

As for `Clc1ccc(C2=NNCC2c2ccccc2)cc1` (stereo not given), the melting point lay within 156 to 162 °C.

For `COc1ccc(Cl)cc1C(=O)NCCc1ccc(CC(C)(C)C(=O)O)cc1`, the melting point was in the range of 138 to 141 °C.

As to `OC1Cc2cccc(-c3ccccc3)c2C1` (single isomer, unassigned; (+)), the melting point lay in the range of 100 to 101 °C.

With `CCc1cc(N2CCCCC2)c(S(C)(=O)=O)cc1C(=O)N=C(N)N`, the melting point was in the range of 218 to 220 °C.

As to `CCOC(=O)c1c(C(=O)O)c2c(OCc3ccccc3)ccc3c(CC)c(-c4ccc(OCc5ccccc5)cc4)c1n32`, the melting point was in the range of 171 to 173 °C.

Take `c1cnc(N2CCN(CCCCn3cnc4ccccc43)CC2)nc1`: the melting point is 85 to 88 °C.

With `CC(C)OCc1cnc2c(NC(=O)c3c(Cl)cccc3Cl)cccc2c1Cl`, the melting point was in the range of 117 to 118 °C.

These data come from a melting point compilation (Tetko et al.; mined from patent text by program, amines drawn as free bases though some values may be those of a salt).
